Test results taken from patent US20040106838A1, “Use of ionic liquids to separate diolefins” (NOVA Chemicals (International) S.A., priority 2002, published 2004).
Read-outs that look alike come from different tables or passages of the source. Blank lines part the entries; values can stand above or below the compound they belong to.

What was measured:
[1] = C5 hydrocarbon solubility in bmim+ BF4− ionic liquid
Protocol: The testing apparatus consisted of a flat-bottomed florence flask with a graduated neck. The flask was charged with 75 mL of bmim^+ BF4^−, the level being recorded. A known quantity of a C5 hydrocarbon was then added to the flask and the flask was sealed. The overall liquid level and the location of the liquid-liquid interfacial meniscus were recorded. The mixture was then agitated to contact the two liquids and the two phases were allowed to separate. The locations of all meniscuses were then recorded. Agitation and phase separation was then repeated until the liquid levels remained unchanged. The volume change of the hydrocarbon phase corresponds to the quantity of hydrocarbon dissolved in the ionic liquid. The testing was conducted at ambient temperature.

[2] = Liquid-liquid extraction of butadiene from mixed C4 by bmim+ BF4− ionic liquid; assay type: physicochemical; conditions: room temperature
Source text: The testing apparatus consists of three sample cylinders (150 cc, 10 cc, and 50 cc) connected by ⅜-inch tubing (in the order listed) with valves allowing for isolation of each cylinder. A gas syringe is used to take C4 samples for GC analysis. Various mixed C4S were used which contained varying quantities of 1,3-butadiene (ranging from 15-85 weight %). The composition range of the non-butadiene fraction of the standards was (in weight %) n-butane 29-33%, 1-butene 20-33%, isobutene 0-36%, trans-2-butene 7-17%, and cis-2-butene 5-17%.
To measure C4 extraction, 40 mL of bmim^+ BF4^− absorbent is loaded into the 150 cc cylinder and the 10 cc and 150 cc cylinders are then evacuated. The 10 cc cylinder is then isolated and charged with mixed C4 liquid. This liquid is then added to the 150 cc cylinder. The 10 cc cylinder is then isolated and a second 10 cc is then added to the and subsequently added to the 150 cc cylinder and the 150 cc cylinder is isolated. The apparatus is then agitated to maximize contact between the C4 and ionic liquid phases within the 150 cc cylinder. Following agitation, the liquid is allowed to sit 12 hours to allow the two liquid phases to separate.
To determine the level and composition of C4 in the ionic liquid, a 10 cc sample of ionic liquid from the 150 cc cylinder is charged into the 10 cc cylinder. The 150 cc cylinder is then isolated and the 10 cc ionic liquid sample is charged to the 50 cc cylinder, which is then isolated. The 50 cc cylinder is then heated and the gas syringe is used to collect C4 gas evolving from the ionic liquid. The collected gas is analyzed by GC.
These pseudo-equilibrium extraction experiments conducted for different butadiene concentrations yielded enhanced concentrations of butadiene in the C4 extracted by the ionic liquid.

[3] = in 1-butyl-3-methylimidazolium tetrafluoroborate (bmim+ BF4−), ambient temperature
[4] = solubility in bmim+ BF4−, ambient temperature

SMILES: CC=C(C)C [2-Methyl-2-Butene, 2-methyl-2-butene]
Solubility (mol C5/L Ionic Liquid) [1, 3]: 0.360 mol C5/L Ionic Liquid | Selectivity Over Isopentane [1, 4]: 10.6

SMILES: C=CC=C [Butadiene, 1,3-butadiene]
Butadiene Concentration in Extracted C4 (wt %) ([2]; Butadiene Concentration in Feed 15 wt %): 37.6 wt % | Butadiene Concentration in Extracted C4 (wt %) ([2]; Butadiene Concentration in Feed 30 wt %): 43.3 wt % | Butadiene Concentration in Extracted C4 (wt %) ([2]; Butadiene Concentration in Feed 50 wt %): 74.1 wt % | Butadiene Concentration in Extracted C4 (wt %) ([2]; Butadiene Concentration in Feed 70 wt %): 82.0 wt % | Butadiene Concentration in Extracted C4 (wt %) ([2]; Butadiene Concentration in Feed 85 wt %): 91.8 wt %

Solubility (mol C5/L Ionic Liquid) [1]: 0.034 mol C5/L Ionic Liquid
SMILES: CCC(C)C [Isopentane, isopentane]

SMILES: C=CC(=C)C [Isoprene, isoprene]
Solubility (mol C5/L Ionic Liquid) [1, 3]: 0.611 mol C5/L Ionic Liquid | Selectivity Over 2-Methyl-2-Butene [1, 4]: 1.7 | Selectivity Over Isopentane [1, 4]: 18.0
